System: panel of 484 cancer cell lines
Test: PRISM cancer cell line profiling, 5 days
Format: cell-based
Design: AUC: unit not given beside the values
Description: Cancer cell line profiling was performed using the Broad’s PRISM platform. Cell treatment and data analysis were performed as described in Yu et al[42]. Raw Luminex signal was converted to AUC values for each cell line as described. The resulting AUC profile for each compound was modeled against DepMap using the limma package in R[71]. Because hotspot mutation analysis was performed against DepMap, TP53 annotations in Fig. 6c,d are directly from DepMap.

## CN1CCN(CCC(=O)Nc2ccc3c(=O)n(CC4(O)CCN(C(=O)[C@H](CCCNC(=O)c5ccc6c(Cl)c7c(nc6c5)CCCC7)Cc5ccccc5)CC4)cnc3c2)CC1 [XL177B]
8MGBA_CENTRAL_NERVOUS_SYSTEM
  AUC: 1.054
22RV1_PROSTATE
  AUC: 1.093
42MGBA_CENTRAL_NERVOUS_SYSTEM
  AUC: 1.146
253JBV_URINARY_TRACT
  AUC: 1.057
253J_URINARY_TRACT
  AUC: 1.086
639V_URINARY_TRACT
  AUC: 1.062
647V_URINARY_TRACT
  AUC: 1.143
769P_KIDNEY
  AUC: 1.004
786O_KIDNEY
  AUC: 1.051
5637_URINARY_TRACT
  AUC: 0.9181
8305C_THYROID
  AUC: 1.192
8505C_THYROID
  AUC: 0.9816
2313287_STOMACH
  AUC: 1.329
A101D_SKIN
  AUC: 1.213
A172_CENTRAL_NERVOUS_SYSTEM
  AUC: 1.079
A204_SOFT_TISSUE
  AUC: 1.022
A375_SKIN
  AUC: 1.179
A549_LUNG
  AUC: 1.079
A673_BONE
  AUC: 1.28
A704_KIDNEY
  AUC: 1.217
A2058_SKIN
  AUC: 1.197
A2780_OVARY
  AUC: 1.076
ABC1_LUNG
  AUC: 1.075
ACCMESO1_PLEURA
  AUC: 0.9927
ACHN_KIDNEY
  AUC: 1.273
AGS_STOMACH
  AUC: 1.102
AN3CA_ENDOMETRIUM
  AUC: 1.099
ASPC1_PANCREAS
  AUC: 1.162
BC3C_URINARY_TRACT
  AUC: 1.114
BCPAP_THYROID
  AUC: 1.195
BECKER_CENTRAL_NERVOUS_SYSTEM
  AUC: 1.058
BEN_LUNG
  AUC: 1.091
BFTC905_URINARY_TRACT
  AUC: 1.11
BFTC909_KIDNEY
  AUC: 1.1037
BHT101_THYROID
  AUC: 1.056
BICR6_UPPER_AERODIGESTIVE_TRACT
  AUC: 0.9836
BICR16_UPPER_AERODIGESTIVE_TRACT
  AUC: 1.161
BICR31_UPPER_AERODIGESTIVE_TRACT
  AUC: 0.9322
BICR56_UPPER_AERODIGESTIVE_TRACT
  AUC: 0.9864
BT474_BREAST
  AUC: 1.187
BT549_BREAST
  AUC: 0.9575
BXPC3_PANCREAS
  AUC: 1.32
CADOES1_BONE
  AUC: 1.116
CAKI1_KIDNEY
  AUC: 1.162
CAL12T_LUNG
  AUC: 1
CAL27_UPPER_AERODIGESTIVE_TRACT
  AUC: 1.104
CAL29_URINARY_TRACT
  AUC: 1.1383
CAL51_BREAST
  AUC: 1.013
CAL54_KIDNEY
  AUC: 1.167
CAL62_THYROID
  AUC: 1.094
CAL78_BONE
  AUC: 1.0528
CAL120_BREAST
  AUC: 0.9632
CALU1_LUNG
  AUC: 0.8074
CALU6_LUNG
  AUC: 1.057
CAMA1_BREAST
  AUC: 1.095
CAOV3_OVARY
  AUC: 1.1
CAPAN2_PANCREAS
  AUC: 1.138
CCFSTTG1_CENTRAL_NERVOUS_SYSTEM
  AUC: 0.9645
CFPAC1_PANCREAS
  AUC: 1.136
CHL1_SKIN
  AUC: 1.081
CJM_SKIN
  AUC: 1.284
CL34_LARGE_INTESTINE
  AUC: 1.203
COLO668_LUNG
  AUC: 1.113
COLO679_SKIN
  AUC: 1.002
COLO680N_OESOPHAGUS
  AUC: 1.0645
COLO741_SKIN
  AUC: 1.159
COLO783_SKIN
  AUC: 1.1
COLO792_SKIN
  AUC: 1.078
COLO800_SKIN
  AUC: 1.008
CORL23_LUNG
  AUC: 1.07
CORL105_LUNG
  AUC: 1.1478
COV362_OVARY
  AUC: 1.091
COV434_OVARY
  AUC: 0.9992
DANG_PANCREAS
  AUC: 1.066
DAOY_CENTRAL_NERVOUS_SYSTEM
  AUC: 0.9946
DBTRG05MG_CENTRAL_NERVOUS_SYSTEM
  AUC: 1.141
DETROIT562_UPPER_AERODIGESTIVE_TRACT
  AUC: 1.072
DKMG_CENTRAL_NERVOUS_SYSTEM
  AUC: 1.0187
DMS273_LUNG
  AUC: 1.134
DU145_PROSTATE
  AUC: 1.137
DV90_LUNG
  AUC: 0.9062
DepMap TP53 mutation annotation
  ∆ (AUC, TP53 mutation vs WT; decreased sensitivity): not significantly associated
EBC1_LUNG
  AUC: 1.133
ECGI10_OESOPHAGUS
  AUC: 1.109
EFM192A_BREAST
  AUC: 0.9815
EFO21_OVARY
  AUC: 1.192
EFO27_OVARY
  AUC: 1.165
EN_ENDOMETRIUM
  AUC: 1.137
ES2_OVARY
  AUC: 1.077
ESS1_ENDOMETRIUM
  AUC: 1.338
EWS502_BONE
  AUC: 1.036
FADU_UPPER_AERODIGESTIVE_TRACT
  AUC: 1.234
FTC133_THYROID
  AUC: 0.9765
FTC238_THYROID
  AUC: 0.9864
G292CLONEA141B1_BONE
  AUC: 1.035
G361_SKIN
  AUC: 1.116
G401_SOFT_TISSUE
  AUC: 0.7376
G402_SOFT_TISSUE
  AUC: 0.8902
GAMG_CENTRAL_NERVOUS_SYSTEM
  AUC: 1.162
GB1_CENTRAL_NERVOUS_SYSTEM
  AUC: 1.065
GCIY_STOMACH
  AUC: 0.9556
GCT_SOFT_TISSUE
  AUC: 1.093
GI1_CENTRAL_NERVOUS_SYSTEM
  AUC: 0.984
GMS10_CENTRAL_NERVOUS_SYSTEM
  AUC: 0.9403
GOS3_CENTRAL_NERVOUS_SYSTEM
  AUC: 0.9659
GP2D_LARGE_INTESTINE
  AUC: 1.185
H4_CENTRAL_NERVOUS_SYSTEM
  AUC: 1.05
HARA_LUNG
  AUC: 1.202
HCC15_LUNG
  AUC: 1.143
HCC38_BREAST
  AUC: 1.103
HCC44_LUNG
  AUC: 1.112
HCC56_LARGE_INTESTINE
  AUC: 1.103
HCC78_LUNG
  AUC: 1.106
HCC95_LUNG
  AUC: 1.096
HCC366_LUNG
  AUC: 1.065
HCC827_LUNG
  AUC: 0.9535
HCC1143_BREAST
  AUC: 1.163
HCC1195_LUNG
  AUC: 0.8866
HCC1359_LUNG
  AUC: 1.197
HCC1419_BREAST
  AUC: 1.107
HCC1428_BREAST
  AUC: 0.9597
